Results taken from ChEMBL document CHEMBL3351875, “Synthesis of Deuterated Benzopyran Derivatives as Selective COX-2 Inhibitors with Improved Pharmacokinetic Properties” (ACS Med Chem Lett, 2014).

Experiments:
[1] = Apparent oral clearance in Sprague-Dawley rat at 5 mg/kg, iv measured during 1 to 24 hrs by LC-MS method; format: ADME, organism-based; parameters: dose 5 mg/kg, route oral; settings: in vivo
[2] = Tmax in Sprague-Dawley rat at 25 mg/kg, po measured during 1 to 24 hrs by LC-MS method; format: ADME, organism-based; parameters: dose 25 mg/kg, route oral; settings: in vivo
[3] = Apparent oral clearance in Sprague-Dawley rat at 25 mg/kg, po measured during 1 to 24 hrs by LC-MS method; format: ADME, organism-based; parameters: dose 25 mg/kg, route oral; settings: in vivo
[4] = Volume of distribution in Sprague-Dawley rat at 5 mg/kg, iv measured during 1 to 24 hrs by LC-MS method; format: ADME, organism-based; parameters: dose 5 mg/kg, route intravenous; settings: in vivo
Rattus norvegicus [5] = test: Volume of distribution in Sprague-Dawley rat at 25 mg/kg, po measured during 1 to 24 hrs by LC-MS method; format: ADME, organism-based; parameters: dose 25 mg/kg, route oral; settings: in vivo
[6] = AUC (0 to infinity) in Sprague-Dawley rat at 25 mg/kg, po measured during 1 to 24 hrs by LC-MS method; format: ADME, organism-based; parameters: time infinity, dose 25 mg/kg, route oral; settings: plasma
[7] = (§1) AUC (0 to infinity) in Sprague-Dawley rat at 5 mg/kg, iv measured during 1 to 24 hrs by LC-MS method; format: ADME, organism-based, Plasma; parameters: time infinity, dose 5 mg/kg, route intravenous; settings: Sprague-Dawley, plasma
[8] = molecular target: Prostaglandin G/H synthase 1 (Homo sapiens, UniProt P23219); test: Inhibition of human recombinant COX1 pre-incubated for 15 mins before fluorometric substrate addition by fluorescence based assay
Prostaglandin G/H synthase 1, sequence (P23219 whole entry): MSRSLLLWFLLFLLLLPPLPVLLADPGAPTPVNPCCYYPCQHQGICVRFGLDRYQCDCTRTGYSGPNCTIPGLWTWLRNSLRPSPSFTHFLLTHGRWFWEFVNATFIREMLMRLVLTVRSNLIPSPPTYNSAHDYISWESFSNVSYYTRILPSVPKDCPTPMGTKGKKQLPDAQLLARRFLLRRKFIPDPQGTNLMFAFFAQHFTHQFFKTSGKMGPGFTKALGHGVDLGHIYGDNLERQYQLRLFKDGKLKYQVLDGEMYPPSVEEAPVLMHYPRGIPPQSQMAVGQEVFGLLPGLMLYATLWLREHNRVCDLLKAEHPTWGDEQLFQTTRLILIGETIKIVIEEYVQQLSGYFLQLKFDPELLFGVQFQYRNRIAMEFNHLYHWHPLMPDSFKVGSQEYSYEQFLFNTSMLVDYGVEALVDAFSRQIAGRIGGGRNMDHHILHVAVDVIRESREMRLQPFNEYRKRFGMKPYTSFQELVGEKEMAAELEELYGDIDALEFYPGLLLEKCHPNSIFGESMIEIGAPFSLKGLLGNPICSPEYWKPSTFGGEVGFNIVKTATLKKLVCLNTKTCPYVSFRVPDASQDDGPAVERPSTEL

[9] = Cmax in Sprague-Dawley rat at 25 mg/kg, po measured during 1 to 24 hrs by LC-MS method; format: ADME, organism-based; parameters: dose 25 mg/kg, route oral; settings: in vivo
[10] = Cmax in Sprague-Dawley rat at 5 mg/kg, iv measured during 1 to 24 hrs by LC-MS method; format: ADME, organism-based; parameters: dose 5 mg/kg, route intravenous; settings: in vivo
[11] = Half life in Sprague-Dawley rat at 25 mg/kg, po measured during 1 to 24 hrs by LC-MS method; format: ADME, organism-based; parameters: dose 25 mg/kg, route oral; settings: in vivo
[12] = Oral bioavailability in Sprague-Dawley rat at 25 mg/kg measured during 1 to 24 hrs by LC-MS method; format: ADME, organism-based; settings: in vivo
Rattus norvegicus [13] = test: Half life in Sprague-Dawley rat at 5 mg/kg, iv measured during 1 to 24 hrs by LC-MS method; format: ADME, organism-based; parameters: dose 5 mg/kg, route intravenous; settings: in vivo
[14] = molecular target: T1, Prostaglandin G/H synthase 2 (Homo sapiens, UniProt P35354); test: Inhibition of human recombinant COX2 pre-incubated for 15 mins before fluorometric substrate addition by fluorescence based assay
T1 sequence (P35354 whole entry): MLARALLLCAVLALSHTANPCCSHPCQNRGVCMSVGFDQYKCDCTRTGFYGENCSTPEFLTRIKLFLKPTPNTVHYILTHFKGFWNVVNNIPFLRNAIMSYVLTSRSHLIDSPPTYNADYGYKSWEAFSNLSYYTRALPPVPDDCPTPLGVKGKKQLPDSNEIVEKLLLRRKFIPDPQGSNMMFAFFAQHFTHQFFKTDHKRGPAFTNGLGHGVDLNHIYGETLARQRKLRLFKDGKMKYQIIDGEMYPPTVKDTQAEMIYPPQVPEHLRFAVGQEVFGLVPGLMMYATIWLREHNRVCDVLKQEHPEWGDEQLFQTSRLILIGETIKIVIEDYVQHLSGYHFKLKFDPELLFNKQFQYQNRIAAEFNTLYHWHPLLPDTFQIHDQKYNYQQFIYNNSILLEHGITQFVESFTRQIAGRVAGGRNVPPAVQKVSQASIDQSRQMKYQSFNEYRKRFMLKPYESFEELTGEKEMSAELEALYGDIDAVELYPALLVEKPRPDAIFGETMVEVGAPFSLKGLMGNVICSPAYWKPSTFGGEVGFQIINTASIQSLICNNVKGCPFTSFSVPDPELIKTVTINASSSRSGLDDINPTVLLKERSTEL

Rattus norvegicus [15] = test: Volume of distribution in Sprague-Dawley rat at 10 mg/kg, po measured during 1 to 24 hrs by LC-MS method; format: ADME, organism-based; parameters: dose 10 mg/kg, route oral; settings: in vivo
[16] = Apparent oral clearance in Sprague-Dawley rat at 10 mg/kg, po measured during 1 to 24 hrs by LC-MS method; format: ADME, organism-based; parameters: dose 10 mg/kg, route oral; settings: Sprague-Dawley, in vivo
Rattus norvegicus [17] = test: Antiinflammatory activity in orally dosed Sprague-Dawley rat model of carrageenan-induced foot paw edema assessed as reduction in edema by plethysmometry; format: functional, organism-based
Rattus norvegicus [18] = test: Antinociceptive activity in orally dosed Sprague-Dawley rat model of carrageenan-induced foot paw hyperalgesia assessed as paw withdrawal latency; format: functional, organism-based
[19] = (§2) AUC (0 to infinity) in Sprague-Dawley rat at 10 mg/kg, po measured during 1 to 24 hrs by LC-MS method; format: ADME, organism-based, Plasma; parameters: time infinity, dose 10 mg/kg, route oral; settings: Sprague-Dawley, plasma
Rattus norvegicus [20] = test: Antiinflammatory activity in orally dosed Sprague-Dawley rat model of carrageenan-induced air pouch inflammation assessed as reduction in PGE2 level by ELISA method; format: functional, organism-based
[21] = Oral bioavailability in Sprague-Dawley rat at 10 mg/kg measured during 1 to 24 hrs by LC-MS method; format: ADME, organism-based; settings: Sprague-Dawley, in vivo
Rattus norvegicus [22] = test: as §1; format: ADME, organism-based, Plasma; parameters: time infinity, dose 5 mg/kg, route intravenous; settings: in vivo
Rattus norvegicus [23] = test: Antiarthritic activity in Lewis rat model of adjuvant-induced arthritis administrated by oral gavage once daily; format: functional
Rattus norvegicus [24] = test: as §2; format: ADME, organism-based, Plasma; parameters: time infinity, dose 10 mg/kg, route oral; settings: in vivo
[25] = AUC (0 to infinity) in Sprague-Dawley rat at 1 mg/kg, iv measured during 1 to 24 hrs by LC-MS method; format: ADME, organism-based, Plasma; parameters: time infinity, dose 1 mg/kg, route intravenous; settings: Sprague-Dawley, plasma
[26] = Oral bioavailability in Sprague-Dawley rat at 2.5 mg/kg measured during 1 to 24 hrs by LC-MS method; format: ADME, organism-based; settings: Sprague-Dawley, in vivo
[27] = Cmax in Sprague-Dawley rat at 1 mg/kg, iv measured during 1 to 24 hrs by LC-MS method; format: ADME, organism-based; parameters: dose 1 mg/kg, route intravenous; settings: in vivo
[28] = Cmax in Sprague-Dawley rat at 2.5 mg/kg, po measured during 1 to 24 hrs by LC-MS method; format: ADME, organism-based; parameters: dose 2.5 mg/kg, route oral; settings: in vivo
Rattus norvegicus [29] = test: Tmax in Sprague-Dawley rat at 2.5 mg/kg, po measured during 1 to 24 hrs by LC-MS method; format: ADME, organism-based; parameters: dose 2.5 mg/kg, route oral; settings: in vivo
Rattus norvegicus [30] = test: Half life in Sprague-Dawley rat at 1 mg/kg, iv measured during 1 to 24 hrs by LC-MS method; format: ADME, organism-based; parameters: dose 1 mg/kg, route intravenous; settings: in vivo
Rattus norvegicus [31] = test: Half life in Sprague-Dawley rat at 2.5 mg/kg, po measured during 1 to 24 hrs by LC-MS method; format: ADME, organism-based; parameters: dose 2.5 mg/kg, route oral; settings: in vivo
[32] = Volume of distribution in Sprague-Dawley rat at 1 mg/kg, iv measured during 1 to 24 hrs by LC-MS method; format: ADME, organism-based; parameters: dose 1 mg/kg, route intravenous; settings: in vivo
Rattus norvegicus [33] = test: Volume of distribution in Sprague-Dawley rat at 2.5 mg/kg, po measured during 1 to 24 hrs by LC-MS method; format: ADME, organism-based; parameters: dose 2.5 mg/kg, route oral; settings: in vivo
[34] = Apparent oral clearance in Sprague-Dawley rat at 2.5 mg/kg, po measured during 1 to 24 hrs by LC-MS method; format: ADME, organism-based; parameters: dose 2.5 mg/kg, route oral; settings: Sprague-Dawley, in vivo
[35] = Apparent oral clearance in Sprague-Dawley rat at 1 mg/kg, iv measured during 1 to 24 hrs by LC-MS method; format: ADME, organism-based; parameters: dose 1 mg/kg, route oral; settings: in vivo
[36] = AUC (0 to infinity) in Sprague-Dawley rat at 2.5 mg/kg, po measured during 1 to 24 hrs by LC-MS method; format: ADME, organism-based, Plasma; parameters: dose 2.5 mg/kg, route oral, time infinity; settings: Sprague-Dawley, plasma

Row | CL/F [1] [mL/min/kg] | Vd [4] [L/kg] | AUC(0-inf) [7] [ng·h/mL] | IC50 [8] [nM] | Cmax [10] [ng/mL] | t1/2 (Rattus norvegicus [13]) [h] | IC50 [14] [nM] | Vd (Rattus norvegicus [15]) [L/kg] | CL/F [16] [mL/min/kg] | EC50 (Rattus norvegicus [17]) [mg/kg] | EC50 (Rattus norvegicus [18]) [mg/kg] | EC50 (Rattus norvegicus [20]) [mg/kg] | bioavailability [21] [%] | Structure (SMILES) | further results
1 | 0.633 | 0.301 | 131000 | > 100000 | 37200 | 5.446 |  |  |  |  |  |  |  | CCc1cc(OC(F)(F)F)cc2c1OC(C(F)(F)F)C(C(=O)O)=C2 (centres undefined) | Tmax [2]: 1.62 h; CL/F [3]: 0.817 mL/min/kg; Vd (Rattus norvegicus [5]): 0.678 L/kg; AUC(0-inf) [6]: 511000 ng·h/mL; Cmax [9]: 29500 ng/mL; half-life [11]: 9.54 h; bioavailability [12]: 78.6%
2 | 2.25 | 0.529 | 37900 |  | 26200 | 2.733 | 43 | 0.57 | 2.08 | 2.26 | 3.82 | 0.57 | 112 | [2H]C([2H])([2H])c1cc2c(c(C([2H])([2H])[2H])c1Br)C=C(C(=O)O)C(C(F)(F)F)O2 (centres undefined) | AUC(0-inf) [19]: 84800 ng·h/mL
3 | 1.28 | 0.461 |  |  | 39000 | 4.186 | 39 | 0.53 | 1.2 | 3 | 2.19 | 0.27 | 107 | [2H]C([2H])([2H])c1cc(Br)cc2c1OC(C(F)(F)F)C(C(=O)O)=C2 (centres undefined) | AUC (Rattus norvegicus [22]): 66436.832 ng·h/mL; ED50 (Rattus norvegicus [23]): 0.42 mg/kg; AUC (Rattus norvegicus [24]): 142686.966 ng·h/mL
4 |  |  |  | > 100000 |  |  | 190 |  |  |  |  |  |  | Cc1cc2c(c(C)c1Br)C=C(C(=O)O)C(C(F)(F)F)O2 (centres undefined) | AUC(0-inf) [25]: 8840 ng·h/mL; bioavailability [26]: 56.7%; Cmax [27]: 16700 ng/mL; Cmax [28]: 5340 ng/mL; Tmax (Rattus norvegicus [29]): 0.375 h; t1/2 (Rattus norvegicus [30]): 2.3 h; t1/2 (Rattus norvegicus [31]): 3.53 h; Vd [32]: 0.38 L/kg; Vd (Rattus norvegicus [33]): 1.13 L/kg; CL/F [34]: 3.52 mL/min/kg; CL/F [35]: 1.98 mL/min/kg; AUC(0-inf) [36]: 12500 ng·h/mL
